The values that follow come from ChEMBL document CHEMBL4507319 (2021).

Assay [1] concerns the target Tyrosine-protein kinase CSK (Homo sapiens) (UniProt P41240). Particulars: Compound concentration 1000.0 nM.
The target in assay [2] is T1, Mitogen-activated protein kinase kinase kinase 2 (Homo sapiens) (UniProt Q9Y2U5).
T1 sequence (whole entry): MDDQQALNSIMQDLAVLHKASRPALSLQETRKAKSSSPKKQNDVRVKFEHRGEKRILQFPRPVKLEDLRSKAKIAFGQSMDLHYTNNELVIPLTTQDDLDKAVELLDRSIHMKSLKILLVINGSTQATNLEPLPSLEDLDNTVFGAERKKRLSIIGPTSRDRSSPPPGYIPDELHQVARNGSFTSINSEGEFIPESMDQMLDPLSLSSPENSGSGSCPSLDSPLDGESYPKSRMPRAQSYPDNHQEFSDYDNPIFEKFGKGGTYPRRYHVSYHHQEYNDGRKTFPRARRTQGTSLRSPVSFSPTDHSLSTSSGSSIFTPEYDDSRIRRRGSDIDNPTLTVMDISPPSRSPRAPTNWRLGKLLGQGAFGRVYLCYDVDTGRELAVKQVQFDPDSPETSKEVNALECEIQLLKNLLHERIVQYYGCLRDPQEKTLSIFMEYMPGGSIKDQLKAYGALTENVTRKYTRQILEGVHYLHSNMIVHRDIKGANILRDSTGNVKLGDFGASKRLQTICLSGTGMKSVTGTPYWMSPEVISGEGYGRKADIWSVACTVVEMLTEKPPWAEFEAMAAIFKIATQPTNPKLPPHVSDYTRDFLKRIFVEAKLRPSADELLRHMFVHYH
The conditions noted are these: Compound concentration 1000.0 nM.

Assay [3] has as its target Rho-associated protein kinase 1 (Homo sapiens) (UniProt Q13464). Particulars: Compound concentration 1000.0 nM.
For assay [4], the target named is T2, Serine/threonine-protein kinase TAO3 (Homo sapiens) (UniProt Q9H2K8).
T2 sequence (whole entry): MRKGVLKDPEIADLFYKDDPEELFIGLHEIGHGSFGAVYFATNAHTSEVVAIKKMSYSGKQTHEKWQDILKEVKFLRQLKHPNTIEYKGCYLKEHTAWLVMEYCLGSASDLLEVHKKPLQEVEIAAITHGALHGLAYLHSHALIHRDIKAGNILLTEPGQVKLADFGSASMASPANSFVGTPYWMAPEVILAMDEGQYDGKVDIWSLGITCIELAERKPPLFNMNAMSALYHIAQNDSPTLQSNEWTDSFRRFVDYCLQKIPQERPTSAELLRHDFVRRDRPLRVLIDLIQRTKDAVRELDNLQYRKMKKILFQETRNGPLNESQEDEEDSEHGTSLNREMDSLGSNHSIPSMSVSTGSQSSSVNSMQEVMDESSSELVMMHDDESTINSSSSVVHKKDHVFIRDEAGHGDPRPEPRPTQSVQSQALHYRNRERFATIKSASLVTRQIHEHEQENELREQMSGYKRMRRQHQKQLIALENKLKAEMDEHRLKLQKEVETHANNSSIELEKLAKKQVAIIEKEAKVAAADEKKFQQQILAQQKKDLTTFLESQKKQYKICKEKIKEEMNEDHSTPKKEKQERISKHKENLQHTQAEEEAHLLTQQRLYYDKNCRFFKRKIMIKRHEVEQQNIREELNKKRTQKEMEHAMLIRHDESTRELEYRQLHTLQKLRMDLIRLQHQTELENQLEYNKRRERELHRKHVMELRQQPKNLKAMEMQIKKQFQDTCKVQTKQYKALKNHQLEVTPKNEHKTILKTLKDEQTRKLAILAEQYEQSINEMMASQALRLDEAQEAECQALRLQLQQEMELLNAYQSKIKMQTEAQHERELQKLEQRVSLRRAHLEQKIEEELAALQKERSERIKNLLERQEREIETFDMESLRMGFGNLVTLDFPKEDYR
Particulars: Compound concentration 1000.0 nM.

Assay [5] deals with T3, Dual specificity protein kinase TTK (Homo sapiens) (UniProt P33981).
T3 sequence (whole entry): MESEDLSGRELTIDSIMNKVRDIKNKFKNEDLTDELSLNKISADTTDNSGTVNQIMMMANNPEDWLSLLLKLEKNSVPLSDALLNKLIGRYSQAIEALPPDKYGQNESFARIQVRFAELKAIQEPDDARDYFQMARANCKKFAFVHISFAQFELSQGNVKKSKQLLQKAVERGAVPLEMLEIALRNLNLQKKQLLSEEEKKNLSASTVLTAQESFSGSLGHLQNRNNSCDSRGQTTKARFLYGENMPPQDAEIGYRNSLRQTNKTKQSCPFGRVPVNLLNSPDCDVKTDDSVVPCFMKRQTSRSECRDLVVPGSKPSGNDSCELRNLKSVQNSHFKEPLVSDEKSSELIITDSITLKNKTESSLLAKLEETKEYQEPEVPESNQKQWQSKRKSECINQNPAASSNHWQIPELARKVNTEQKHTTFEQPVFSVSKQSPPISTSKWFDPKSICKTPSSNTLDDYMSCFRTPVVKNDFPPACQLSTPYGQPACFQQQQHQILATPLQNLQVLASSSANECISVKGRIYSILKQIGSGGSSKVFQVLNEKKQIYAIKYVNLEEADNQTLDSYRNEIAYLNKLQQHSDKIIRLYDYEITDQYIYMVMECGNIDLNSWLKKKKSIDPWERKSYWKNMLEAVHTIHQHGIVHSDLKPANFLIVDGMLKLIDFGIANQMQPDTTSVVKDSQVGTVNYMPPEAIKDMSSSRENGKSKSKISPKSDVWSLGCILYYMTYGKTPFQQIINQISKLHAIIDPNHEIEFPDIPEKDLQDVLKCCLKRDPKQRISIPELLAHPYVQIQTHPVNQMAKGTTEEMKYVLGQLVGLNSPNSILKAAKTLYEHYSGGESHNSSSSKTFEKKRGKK
Particulars: Compound concentration 1000.0 nM.

The target of assay [6] is Wee1-like protein kinase (Homo sapiens) (UniProt P30291). Particulars: Compound concentration 1000.0 nM.
Assay [7] deals with Beta-1 adrenergic receptor (Homo sapiens) (UniProt P08588). Particulars: Compound concentration 10.0 uM.
Chain of Beta-1 adrenergic receptor (Homo sapiens) (P08588 whole entry, looked up): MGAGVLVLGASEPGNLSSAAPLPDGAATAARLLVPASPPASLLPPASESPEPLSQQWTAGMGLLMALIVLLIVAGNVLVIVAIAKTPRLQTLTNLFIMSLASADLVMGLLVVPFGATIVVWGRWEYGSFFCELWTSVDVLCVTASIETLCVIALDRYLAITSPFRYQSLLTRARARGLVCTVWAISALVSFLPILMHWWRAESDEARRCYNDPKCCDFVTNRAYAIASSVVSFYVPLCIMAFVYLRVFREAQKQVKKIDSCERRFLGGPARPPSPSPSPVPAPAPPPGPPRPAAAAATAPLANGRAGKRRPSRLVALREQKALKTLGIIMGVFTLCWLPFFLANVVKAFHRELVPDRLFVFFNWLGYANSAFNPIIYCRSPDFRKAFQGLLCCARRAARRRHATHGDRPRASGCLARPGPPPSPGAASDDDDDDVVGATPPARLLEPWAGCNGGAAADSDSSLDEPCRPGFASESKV

Chain of Rho-associated protein kinase 1 (Homo sapiens) (Q13464 2-1354 limits assumed): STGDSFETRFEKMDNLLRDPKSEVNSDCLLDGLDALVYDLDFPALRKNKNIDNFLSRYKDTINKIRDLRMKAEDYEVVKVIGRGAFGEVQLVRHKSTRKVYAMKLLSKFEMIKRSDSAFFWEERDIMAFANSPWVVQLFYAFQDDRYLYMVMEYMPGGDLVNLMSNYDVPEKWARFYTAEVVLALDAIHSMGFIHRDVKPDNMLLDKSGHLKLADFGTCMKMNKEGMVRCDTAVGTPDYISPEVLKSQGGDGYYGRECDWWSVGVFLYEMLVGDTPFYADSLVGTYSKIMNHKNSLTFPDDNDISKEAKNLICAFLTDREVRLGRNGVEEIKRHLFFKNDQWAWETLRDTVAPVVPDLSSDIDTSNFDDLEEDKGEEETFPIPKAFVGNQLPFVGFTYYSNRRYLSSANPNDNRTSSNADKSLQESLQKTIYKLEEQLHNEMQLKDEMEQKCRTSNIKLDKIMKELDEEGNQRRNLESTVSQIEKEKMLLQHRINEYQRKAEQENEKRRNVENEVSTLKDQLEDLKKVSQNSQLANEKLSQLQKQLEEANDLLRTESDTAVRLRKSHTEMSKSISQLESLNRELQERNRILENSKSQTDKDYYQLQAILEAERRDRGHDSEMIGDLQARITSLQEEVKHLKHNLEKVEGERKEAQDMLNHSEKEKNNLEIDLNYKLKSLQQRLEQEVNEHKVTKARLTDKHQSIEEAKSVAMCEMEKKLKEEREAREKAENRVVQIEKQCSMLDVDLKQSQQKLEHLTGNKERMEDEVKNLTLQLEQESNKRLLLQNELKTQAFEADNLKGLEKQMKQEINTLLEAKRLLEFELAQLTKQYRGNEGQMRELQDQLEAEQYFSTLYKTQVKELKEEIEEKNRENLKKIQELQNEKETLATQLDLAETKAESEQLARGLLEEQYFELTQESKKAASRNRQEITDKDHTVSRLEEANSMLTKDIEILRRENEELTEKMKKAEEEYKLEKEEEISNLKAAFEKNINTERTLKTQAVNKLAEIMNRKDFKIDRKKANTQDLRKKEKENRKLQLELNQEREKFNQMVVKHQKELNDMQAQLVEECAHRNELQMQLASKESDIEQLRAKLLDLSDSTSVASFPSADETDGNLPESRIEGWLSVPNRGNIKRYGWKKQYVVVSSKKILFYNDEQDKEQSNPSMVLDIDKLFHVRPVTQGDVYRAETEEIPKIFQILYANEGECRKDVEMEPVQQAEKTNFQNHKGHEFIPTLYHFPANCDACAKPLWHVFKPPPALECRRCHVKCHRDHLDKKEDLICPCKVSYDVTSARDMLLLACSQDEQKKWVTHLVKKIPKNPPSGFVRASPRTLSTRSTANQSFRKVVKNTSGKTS
Chain of Tyrosine-protein kinase CSK (Homo sapiens) (P41240 2-450 limits assumed): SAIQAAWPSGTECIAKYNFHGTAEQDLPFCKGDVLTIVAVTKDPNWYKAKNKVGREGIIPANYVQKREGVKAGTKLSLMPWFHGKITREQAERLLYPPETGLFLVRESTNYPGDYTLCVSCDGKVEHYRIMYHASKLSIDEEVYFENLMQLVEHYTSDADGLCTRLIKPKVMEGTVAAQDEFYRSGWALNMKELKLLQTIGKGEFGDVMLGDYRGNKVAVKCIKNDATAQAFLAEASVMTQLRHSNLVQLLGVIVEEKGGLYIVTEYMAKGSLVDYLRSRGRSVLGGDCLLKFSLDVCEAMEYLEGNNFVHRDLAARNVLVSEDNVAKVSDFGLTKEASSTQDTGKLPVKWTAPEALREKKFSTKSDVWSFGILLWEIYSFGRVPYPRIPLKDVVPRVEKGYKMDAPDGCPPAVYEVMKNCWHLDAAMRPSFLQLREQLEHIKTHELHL
Chain of Wee1-like protein kinase (Homo sapiens) (P30291 whole entry, looked up): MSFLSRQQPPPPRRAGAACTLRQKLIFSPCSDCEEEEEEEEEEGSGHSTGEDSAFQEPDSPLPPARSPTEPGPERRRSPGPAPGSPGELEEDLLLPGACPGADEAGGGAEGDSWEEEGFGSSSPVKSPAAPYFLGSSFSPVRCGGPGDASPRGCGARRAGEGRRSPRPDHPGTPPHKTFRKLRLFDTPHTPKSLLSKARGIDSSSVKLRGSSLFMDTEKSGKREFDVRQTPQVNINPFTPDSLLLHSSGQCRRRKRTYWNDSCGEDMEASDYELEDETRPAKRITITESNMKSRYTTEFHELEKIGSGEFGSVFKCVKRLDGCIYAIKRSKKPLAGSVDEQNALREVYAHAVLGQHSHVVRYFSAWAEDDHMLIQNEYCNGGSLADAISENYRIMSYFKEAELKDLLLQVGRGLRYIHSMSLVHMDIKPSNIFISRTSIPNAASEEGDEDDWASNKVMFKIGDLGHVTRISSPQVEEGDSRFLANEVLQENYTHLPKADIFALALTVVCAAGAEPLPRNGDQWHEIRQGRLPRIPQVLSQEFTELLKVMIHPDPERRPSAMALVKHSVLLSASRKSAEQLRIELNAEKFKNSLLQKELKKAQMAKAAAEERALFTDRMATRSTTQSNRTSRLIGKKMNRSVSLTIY

Usually inhibition stands for the drop in the measured response relative to a control, in per cent. `CC1=C(C#N)C(c2ccc3c(c2)c(NC(=O)c2ccccc2C)nn3C)C(C#N)=C(C)N1` [BAY-974]: the residual activity is 85% in assay [1]; 100% in assay [2]; 100% in assay [3]; 80% in assay [4]; 82% in assay [5]; 100% in assay [6]. The inhibition in assay [7] was -7.79%.

Regarding `CCc1ccccc1C(=O)Nc1n[nH]c2c(C)c(F)c(C3C(C#N)=C(C)N(C)C(C)=C3C#N)cc12` [BAY-3827], the residual activity in assay [1] is 98%; in assay [2], 100%; in assay [3], 100%; in assay [4] it was 38%; in assay [5], 82%; in assay [6], 100%. Besides, in assay [7], the inhibition was 1.59%.
